Results reported in patent US12390472B2 (SUZHOU SINOVENT PHARMACEUTICALS CO., LTD., priority 2018, dated 2025).
Where two headings read alike, the source gives them in different places.

Experiments:
[1] = molecular target: EZH2 enzyme complex (Homo sapiens (Human), UniProt Q15910); experiment: Test on EZH2 inhibitory activity (TR-FRET); format: biochemical; details: EZH2 enzyme complex 25 ng/uL, histone H3 peptide 4 uM, SAM 2 uM, 300 min; read-out: IC50 of EZH2 inhibition
Experimental: • EZH2 enzyme complex: 25 ng/uL • Histone H3 peptide substrate: 4 uM • SAM: 2 uM • Reaction time: 300 min Procedures • 1. Each compound disclosed herein was diluted with 1×HMT buffer and transferred to a 384-well assay plate at 3 uL per well; • 2. The EZH2 enzyme solution was prepared with 1×HMT buffer and transferred to the 384-well assay plate at 2 uL per well; • 3. The above assay plate was incubated for 30 min; • 4. A mixture solution of SAM and histone H3 peptide substrate at 2-fold concentration was prepared with 4×HMT buffer; • 5. 5 uL of the mixture solution of SAM and substrate was added to each well of the assay plate to react at room temperature, and the assay plate was sealed with plastic; • 6. After incubation for 5 h, 10 uL of TR-FRET detection buffer containing Tb-labeled antibody and dye-labeled receptor was added to each well of the assay plate; • 7. After incubation for 1 h at room temperature, the assay plate was detected; • 8.

[2] = tested on: WSU-DLCL2; experiment: Methylated lysine of histone-H3 (H3K27Me3) detection by ELISA, WSU-DLCL2 cells; format: cell-based; details: WSU-DLCL2, 7 days treatment, H3K27Me3 normalized to total histone-3, read-out: IC50 of cell methylation, WSU-DLCL2
Experimental: (§1) The operations for adherent cells and suspension cells cultured in 96-well plates were slightly different after they had been treated with compound (4-fold dilution 20 uM-0.009 nM, 3 duplicate wells) for 7 days, and the operations are summarized as follows: For adherent cells, after discarding the medium, 75 uL of 1-fold hypotonic lysis buffer (10 mM Tris-HCl, pH 7.5, containing halt protease inhibitor and PMSF with a final concentration of 1 mM) was added; the plate was frozen at −80° C. for at least 1 h or overnight; once the plate was taken away from the −80° C. environment, 120 uL (to a final volume of about 195 uL) of 1-fold hypotonic lysis buffer (containing protease inhibitor) was added, and the plate was thawed at room temperature and shaken for 2 min for mixing; and 8 uL (to a final volume of about 203 uL) of 2.5 M NaCl was added to each well to a final NaCl concentration of 100 mM and then the plate was shaken for an additional 2 min for mixing.
(§2) For suspension cells (final volume of medium was 100 uL/well), 25 uL of 5-fold hypotonic lysis buffer (50 mM Tris-HCl, pH 7.5, containing halt protease inhibitor and PMSF with a final concentration of 1 mM) was added, and the plate was frozen at −80° C. for at least 1 h or overnight. Once the plate was taken away from the −80° C. environment, 20 uL of 0.625 M NaCl was added to each well to a final NaCl concentration of about 100 mM, and the mixture was mixed well.
(§3) 75 uL or 100 uL of sample (with duplicate wells provided) was added to two 96-well ELISA plates (ThermoFisher Scientific; Immulon 4HBX 3885) and the plates were coated with total protein lysate and incubated overnight at 4° C. 50 uL of lysate was retained for protein quantitation if necessary. The sealing of the plates must be ensured. The plates were washed twice with 300 uL of 1×PBST (PBS containing 0.05% Tween 20) per well. Each well was blocked with 300 uL of dilution (PBS+2% BSA+0.05% Tween 20), incubated for 2 h at room temperature, and washed twice with 1×PBST. Primary antibodies were diluted with a dilution solution containing 1% BSA+0.05% Tween 20. 75-100 uL of anti-H3K27Me3 antibody (CST; 9733; 50% glycerol stock, 1:1,000) or anti-total histone-3 antibody (Abcam; ab1791; 50% glycerol stock, 1:10,000) was added to each well. The plates were incubated for 90 min at room temperature or incubated overnight at 4° C. The plates were washed three times with 1×PBST. 75-100 uL of anti-Rb-IgG-HRP secondary antibody (Cell Signaling Technology; 7074) was added per well, 1:2000 diluted secondary antibody for anti-H3K 27Me3 plate and 1:6000 diluted secondary antibody for anti-histone total histone-3 plate. The plates were incubated at room temperature for 90 min. The plate assayed with anti-histone-3 antibody was used to normalize the data for the corresponding plate assayed with anti-H3K 27me3. The plates must be washed at least three times with 1×PBST after primary or secondary antibody incubation. The plates were assayed by adding 75-100 uL of 3,3′,5,5′-tetramethylbenzidine substrate (CST or ThermoFisher Scientific; TMBS) per well and incubated away from light for 30 min at 37° C. The reaction was terminated by adding 100 uL of 0.5 M H2SO4 per well. The absorbance was read at 450 nm. Curve fitting was performed using Graph Pad program.

[3] = tested on: Pfeiffer; experiment: Methylated lysine of histone-H3 (H3K27Me3) detection by ELISA, Pfeiffer cells; format: cell-based, human; details: 7 days treatment, H3K27Me3 normalized to total histone-3, read-out: IC50 of cell methylation, Pfeiffer
Experimental: as §1, §2, §3

EZH2 enzyme complex, sequence (Q15910 whole entry): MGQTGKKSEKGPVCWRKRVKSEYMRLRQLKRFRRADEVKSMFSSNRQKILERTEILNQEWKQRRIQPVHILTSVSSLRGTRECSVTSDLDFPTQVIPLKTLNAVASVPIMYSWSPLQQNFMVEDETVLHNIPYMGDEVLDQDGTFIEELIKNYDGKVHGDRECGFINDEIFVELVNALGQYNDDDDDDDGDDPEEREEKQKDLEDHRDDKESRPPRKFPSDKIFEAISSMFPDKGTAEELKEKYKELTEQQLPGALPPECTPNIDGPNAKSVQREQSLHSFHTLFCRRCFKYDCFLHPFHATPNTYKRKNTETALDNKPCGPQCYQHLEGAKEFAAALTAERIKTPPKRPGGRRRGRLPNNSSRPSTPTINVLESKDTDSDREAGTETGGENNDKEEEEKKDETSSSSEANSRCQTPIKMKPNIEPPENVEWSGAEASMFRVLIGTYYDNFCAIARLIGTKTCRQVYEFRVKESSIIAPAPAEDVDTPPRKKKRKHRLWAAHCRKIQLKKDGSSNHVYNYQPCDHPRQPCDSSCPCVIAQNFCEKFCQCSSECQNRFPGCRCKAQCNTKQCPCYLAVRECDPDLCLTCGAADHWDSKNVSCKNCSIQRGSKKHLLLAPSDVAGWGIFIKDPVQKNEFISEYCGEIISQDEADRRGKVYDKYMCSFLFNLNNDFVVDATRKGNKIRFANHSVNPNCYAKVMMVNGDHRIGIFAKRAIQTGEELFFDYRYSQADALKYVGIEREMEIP
EZH2 enzyme complex, sequence (O75530 whole entry partner): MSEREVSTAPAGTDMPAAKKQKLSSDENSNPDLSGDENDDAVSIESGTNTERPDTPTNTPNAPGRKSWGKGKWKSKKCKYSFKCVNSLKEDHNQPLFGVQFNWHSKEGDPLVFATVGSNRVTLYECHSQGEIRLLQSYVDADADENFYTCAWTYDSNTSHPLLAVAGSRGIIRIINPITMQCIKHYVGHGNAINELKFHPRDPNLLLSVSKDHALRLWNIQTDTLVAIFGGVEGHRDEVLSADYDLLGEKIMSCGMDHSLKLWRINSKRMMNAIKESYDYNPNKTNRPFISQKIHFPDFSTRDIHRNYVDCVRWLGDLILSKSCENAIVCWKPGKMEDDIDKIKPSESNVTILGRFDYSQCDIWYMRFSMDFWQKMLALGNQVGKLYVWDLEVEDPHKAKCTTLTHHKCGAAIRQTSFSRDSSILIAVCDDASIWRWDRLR
EZH2 enzyme complex, sequence (Q15022 whole entry partner): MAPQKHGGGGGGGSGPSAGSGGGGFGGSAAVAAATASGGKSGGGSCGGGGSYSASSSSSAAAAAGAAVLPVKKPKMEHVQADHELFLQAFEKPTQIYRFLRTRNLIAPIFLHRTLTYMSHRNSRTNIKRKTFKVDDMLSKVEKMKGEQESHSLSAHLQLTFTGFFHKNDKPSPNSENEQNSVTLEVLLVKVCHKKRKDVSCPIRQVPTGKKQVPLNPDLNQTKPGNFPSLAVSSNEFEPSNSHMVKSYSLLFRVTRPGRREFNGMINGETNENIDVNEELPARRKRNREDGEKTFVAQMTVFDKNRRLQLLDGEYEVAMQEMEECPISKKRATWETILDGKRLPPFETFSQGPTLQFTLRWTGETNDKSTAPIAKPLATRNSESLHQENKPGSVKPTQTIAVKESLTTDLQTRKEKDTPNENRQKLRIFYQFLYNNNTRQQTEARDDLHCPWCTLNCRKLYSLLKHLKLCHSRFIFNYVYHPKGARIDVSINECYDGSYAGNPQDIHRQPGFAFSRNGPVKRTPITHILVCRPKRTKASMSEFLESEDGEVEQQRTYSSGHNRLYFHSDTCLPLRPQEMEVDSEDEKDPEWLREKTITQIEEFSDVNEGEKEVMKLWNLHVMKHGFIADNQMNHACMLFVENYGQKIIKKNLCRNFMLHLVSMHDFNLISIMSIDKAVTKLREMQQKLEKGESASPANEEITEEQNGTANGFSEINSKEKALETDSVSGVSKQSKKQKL

| Structure (SMILES) | IC50 [1] [nM] | IC50 ([2]; Homo sapiens, WSUDLCL2, 168 h) [nM] | IC50 ([3]; Homo sapiens, 168 h) [nM] | IC50 [2] [nM] | IC50 [3] [nM] |
| --- | --- | --- | --- | --- | --- |
| CCN(c1cc(O[C@H]2C[C@H](CN3C[C@@H](C)O[C@@H](C)C3)C2)cc(C(=O)NCc2c(C)cc(C)[nH]c2=O)c1C)C1CCOCC1 [Example 31, N-((4,6-dimethyl-2-oxo-1,2-dihydropyridin-3-yl)methyl)-5-(trans-3-((cis-2,6-dimethylmorpholinyl)methyl)cyclobutoxy)-3-(ethyl(tetrahydro-2H-pyran-4-yl)amino)-2-methylbenzamide] | 10 to 100 | < 50 | < 50 |  |  |
| CCN(c1cc(OC2CC(N3CCOCC3)C2)cc(C(=O)NCc2c(C)cc(C)[nH]c2=O)c1C)[C@H]1CC[C@H](N(C)CCOC)CC1 (stereo partly drawn) [Example 34, N-((4,6-dimethyl-2-oxo-1,2-dihydropyridin-3-yl)methyl)-3-(ethyl(trans-4-((2-methoxyethyl)(methyl)amino)cyclohexyl)amino)-2-methyl-5-(3-morpholinylcyclobutoxy)benzamide] | 10 to 100 | 500 to 1000 | < 50 |  |  |
| CCN(c1cc(O[C@H]2C[C@H](N3C[C@@H](C)O[C@@H](C)C3)C2)cc(C(=O)NCc2c(C)cc(C)[nH]c2=O)c1C)[C@H]1C[C@@H](C)O[C@@H](C)C1 [Example 35, N-((4,6-dimethyl-2-oxo-1,2-dihydropyridin-3-yl)methyl)-5-(trans-3-(cis-2,6-dimethylmorpholinyl)cyclobutoxy)-3-((cis-2,6-dimethyltetrahydro-2H-pyran-4-yl)(ethyl)amino)-2-methylbenzamide] | 10 to 100 | > 1000 | 50 to 500 |  |  |
| CCN(c1cc(O[C@H]2C[C@H](CN3CCCCC3)C2)cc(C(=O)NCc2c(C)cc(C)[nH]c2=O)c1C)C1CCOCC1 [Example 36, N-((4,6-dimethyl-2-oxo-1,2-dihydropyridin-3-yl)methyl)-3-(ethyl(tetrahydro-2H-pyran-4-yl)amino)-2-methyl-5-(trans-3-(piperidin-1-ylmethyl)cyclobutoxy)benzamide] | 10 to 100 | 50 to 500 | < 50 |  |  |
| CCN(c1cc(O[C@H]2C[C@H](N3CCC(C)CC3)C2)cc(C(=O)NCc2c(C)cc(C)[nH]c2=O)c1C)C1CCOCC1 [Example 37, N-((4,6-dimethyl-2-oxo-1,2-dihydropyridin-3-yl)methyl)-3-(ethyl(tetrahydro-2H-pyran-4-yl)amino)-2-methyl-5-(trans-3-(4-methylpiperidin-1-yl)cyclobutoxy)benzamide] | < 10 | 50 to 500 | < 50 |  |  |
| CCN(c1cc(O[C@H]2C[C@@H](N3C[C@@H](C)O[C@@H](C)C3)C2)cc(C(=O)NCc2c(C)cc(C)[nH]c2=O)c1C)[C@@H]1C[C@@H](C)O[C@@H](C)C1 [Example 38, N-((4,6-dimethyl-2-oxo-1,2-dihydropyridin-3-yl)methyl)-5-((1S,3S)-3-((2S,6R)-2,6-dimethylmorpholinyl)cyclobutoxy)-3-(((2R,4s,6S)-2,6-dimethyltetrahydro-2H-pyran-4-yl)(ethyl)amino)-2-methylbenzamide] | 100 to 1000 | > 1000 | 500 to 1000 |  |  |
| CCN(c1cc(O[C@H]2C[C@H](N3C[C@@H](C)O[C@@H](C)C3)C2)cc(C(=O)NCc2c(C)cc(C)[nH]c2=O)c1C)[C@@H]1C[C@@H](C)O[C@@H](C)C1 [Example 39, N-((4,6-dimethyl-2-oxo-1,2-dihydropyridin-3-yl)methyl)-5-(trans-3-(cis-2,6-dimethylmorpholinyl)cyclobutoxy)-3-((trans-2,6-dimethyltetrahydro-2H-pyran-4-yl)(ethyl)amino)-2-methylbenzamide] | 100 to 1000 | > 1000 | 500 to 1000 |  |  |
| CCN(c1cc(O[C@H]2C[C@H](N3C[C@@H](C)O[C@@H](C)C3)C2)cc(C(=O)NCc2c(C)cc(C)[nH]c2=O)c1C)C1CCOC1 (stereo partly drawn) [Example 46, N-((4,6-dimethyl-2-oxo-1,2-dihydropyridin-3-yl)methyl)-5-(trans-3-(cis-2,6-dimethylmorpholinyl)cyclobutoxy)-3-(ethyl(tetrahydrofuran-3-yl)amino)-2-methylbenzamide] | < 10 | 50 to 500 | 500 to 1000 |  |  |
| CCN(c1cc(O[C@H]2C[C@H](N3C[C@@H](C)O[C@@H](C)C3)C2)cc(C(=O)NCc2c(C)cc(C)[nH]c2=O)c1Cl)C1CCOCC1 [Example 48, 2-chloro-N-((4,6-dimethyl-2-oxo-1,2-dihydropyridin-3-yl)methyl)-5-(trans-3-(cis-2,6-dimethylmorpholinyl)cyclobutoxy)-3-(ethyl(tetrahydro-2H-pyran-4-yl)amino)benzamide] | 10 to 100 | 50 to 500 | > 1000 |  |  |
| CCN(c1cc(O[C@H]2C[C@H](N3CC4CCC(C3)O4)C2)cc(C(=O)NCc2c(C)cc(C)[nH]c2=O)c1Cl)C1CCOCC1 [Example 49, 5-(trans-3-(8-oxa-3-azabicyclo[3.2.1]octan-3-yl)cyclobutoxy)-2-chloro-N-((4,6-dimethyl-2-oxo-1,2-dihydropyridin-3-yl)methyl)-3-(ethyl(tetrahydro-2H-pyran-4-yl)amino)benzamide] | 10 to 100 | 50 to 500 | > 1000 |  |  |
| CCN(c1cc(O[C@H]2C[C@H](N3CCOCC3)C2)cc(C(=O)N(C)Cc2c(C)cc(C)[nH]c2=O)c1C)C1CCOCC1 [Example 51, N-((4,6-dimethyl-2-oxo-1,2-dihydropyridin-3-yl)methyl)-3-(ethyl(tetrahydro-2H-pyran-4-yl)amino)-N,2-dimethyl-5-(trans-3-morpholinylcyclobutoxy)benzamide] | 100 to 1000 | > 1000 | > 1000 |  |  |
| CCN(c1cc(O[C@H]2C[C@H](CN3C[C@@H](C)O[C@@H](C)C3)C2)cc(C(=O)NCc2c(C)cc(C)[nH]c2=O)c1Cl)C1CCOCC1 [Example 53, 2-chloro-N-((4,6-dimethyl-2-oxo-1,2-dihydropyridin-3-yl)methyl)-5-(trans-3-((cis-2,6-dimethylmorpholinyl)methyl)cyclobutoxy)-3-(ethyl(tetrahydro-2H-pyran-4-yl)amino)benzamide] | 10 to 100 |  |  | 50 to 500 | 500 to 1000 |
| CCN(c1cc(O[C@H]2C[C@@H](N3CCC(C)CC3)C2)cc(C(=O)NCc2c(C)cc(C)[nH]c2=O)c1C)C1CCOCC1 [Example 56, N-((4,6-dimethyl-2-oxo-1,2-dihydropyridin-3-yl)methyl)-3-(ethyl(tetrahydro-2H-pyran-4-yl)amino)-2-methyl-5-(cis-3-(4-methylpiperidin-1-yl)cyclobutoxy)benzamide] | 10 to 100 | 50 to 500 | 50 to 500 |  |  |
| Cc1cc(C)c(CNC(=O)c2cc(O[C@H]3C[C@H](N4C[C@@H](C)O[C@@H](C)C4)C3)cc(NC3CCOCC3)c2C)c(=O)[nH]1 [Example 57, N-((4,6-dimethyl-2-oxo-1,2-dihydropyridin-3-yl)methyl)-5-(trans-3-(cis-2,6-dimethylmorpholino)cyclobutoxy)-2-methyl-3-((tetrahydro-2H-pyran-4-yl)amino)benzamide] | > 1000 | > 1000 | > 1000 |  |  |
| Cc1cc(C)c(CNC(=O)c2cc(O[C@H]3C[C@H](N4C[C@@H](C)O[C@@H](C)C4)C3)cc(NC3CCOC3)c2C)c(=O)[nH]1 (stereo partly drawn) [Example 58, N-((4,6-dimethyl-2-oxo-1,2-dihydropyridin-3-yl)methyl)-5-(trans-3-(cis-2,6-dimethylmorpholino)cyclobutoxy)-2-methyl-3-((tetrahydrofuran-3-yl)amino)benzamide] | > 1000 | > 1000 | > 1000 |  |  |
